One data set deals with rats. The experiment in a line: Evaluation of wake promoting activity in rats (EEG/EMG sleep/wake scoring). It is filed as in vivo, rat (adult male Wistar). To be noted: i.p. route, 100 mg/kg dose; for Mean AUC0-3 h values, Test compound Mean: n = 8 rats per test compound, time awake in first 3 hrs following dosing; for wakefulness as compared to vehicle-treated control groups: rats, p<0.05 vs vehicle. The procedure:
Methodology: Evaluation of Wake Promoting Activity in Rats
The methodology utilized for evaluating wake promoting activity of test compounds is based on that described by Edgar and Seidel, Journal of Pharmacology and Experimental Therapeutics, 283:757-769, 1997, and incorporated herein in its entirety by reference.
Animal Surgery. Adult, male Wistar rats (275-320 g from Charles River Laboratories, Wilmington, Mass.) were anesthetized (Nembutal, 45 mg/kg, ip.) and surgically prepared with implants for recording of chronic EEG (encephalographic) and EMG (electromyographic) recording. The EEG implants were made from commercially available components (Plastics One, Roanoke, Va.). EEG signals were recorded from stainless steel screw electrodes: 2 frontal (+3.0 mm AP from bregma, ±2.0 mm ML), and 2 occipital (−4.0 mm AP from bregma, ±2.0 mm ML). Two Teflon-coated stainless steel wires were positioned under the nuchal trapezoid muscles for EMG recording. All electrode leads were inserted into a connector pedestal and the pedestal affixed to the skull by application dental acrylic. Antibiotic was administered post surgically and antibiotic cream was applied to the wound edges to prevent infection. At least one week elapsed between surgery and recording.
Recording environment. Postsurgically, rats were housed in pairs in an isolated room. Food and water were available ad libitum, ambient temperature was 21° C., and humidity was 55%. At least 24 hrs prior to recording, they were placed in Nalgene containers (31×31×31 cm) with a wire-grid top, and entry to the room was prohibited during the day of recording except for dosing. The containers were placed on a rack with two shelves, 4 containers per shelf. Fluorescent overhead room lights were set to a 24 hr. light/dark cycle (on at 7 AM, off at 7 PM). Light levels inside the containers were 38 and 25 lux for the top and bottom shelves respectively. Background white-noise (68 db inside the containers) was present in the room to mask ambient sounds.
Data acquisition. EEG and EMG signals were led via cables to a commutator (Plastics One) and then to pre-amplifiers (model 1700, A-M Systems, Carlsborg, Wash.). EEG and EMG signals were amplified (10K and 1K respectively) and bandpass filtered between 0.3 and 500 Hz for EEG and between 10 and 500 Hz for EMG. […] On the day of dosing, data was recorded for 6 to 10 hours beginning at 11 AM.
Drug administration and study design. Compounds were evaluated on groups of from 4 to 8 rats carried out over one or two separate test sessions. […]
Sleep/wake scoring. Sleep and wake activity were determined manually using ICELUS software. […]

The source of these data is patent US8071604B2, “Thio-substituted arylmethanesulfinyl derivatives” (Cephalon France, priority 2007, dated 2011).

By melting point is commonly meant the temperature, or range, at which the solid turns liquid. `NC(=O)C[S+]([O-])Cc1ccccc1COc1ccccc1` (centres unmarked) came in with a melting point of 153 to 154 °C.
As for `CC(=O)N1CCN(C(=O)C[S+]([O-])Cc2ccc(Oc3ccc(Cl)c(Cl)c3)cc2)CC1` (centres unmarked) [Example 22, 1-(4-Acetyl-piperazin-1-yl)-2-[4-(3,4-dichloro-phenoxy)-phenylmethanesulfinyl]-ethanone], in the data set with rats, the “Mean AUC0-3 h values, Test compound Mean” value is recorded as 162.7 % of waiking time × hr and the “wakefulness as compared to vehicle-treated control groups” value is reported as “significantly greated wakefulness”.
The like results for `NC(=O)C[S+]([O-])Cc1ccccc1NC(=O)c1ccc(Cl)cc1` (centres unmarked) [Example 113, N-(2-Carbamoylmethanesulfinylmethyl-phenyl)-4-chloro-benzamide] were, in that order, 99.0 % of waiking time × hr and “significantly greated wakefulness”.
